Source: the supplement of paper PMC11208160
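Further: IS621 bridge recombinase in Escherichia coli cells against a fixed T5 target plasmid.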

Assay: recombinant UMI read abundance after kanamycin selection (control-corrected) (log10(CPM+1)); higher = more efficient recombination; extreme values may be limits of the assay; sequences stand for … in AGTGCAGAGAAAATCGGCCAGTTTTCTCTGCCTGCAGTCCGCATGCCGTGGGACCCCTTGGGTTCTAACCTGTTGCCTAGATTTATGCAGCGGACTGCCTTTCTCCCAAAGTGATAAACCGG…AGGTTGGTTTCACT; site = the 11-nt donor
How it was run: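 Reported values are log10(CPM+1) from a pooled Escherichia coli screen of donor and donor-binding-loop pairs for the IS621 bridge recombinase. Selection used IPTG (0.07 mM) plus kanamycin, against unselected plating, each in two replicates. Recombinant UMIs were amplified across the donor–target junction, sequenced, converted to CPM, averaged over replicates and scaled by control-derived factors.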
In the case of “CGATCATCATGGACCGGTTTTCCCGGTAATCCGTATTTGCT (site CGAAGATCTAG)”, the “recombinant UMI read abundance (log10)” value is reported as 0.
With “CGATCATCATGGACCGGTTTTCCCGGTAATCCGTATTTGCT (site CGACAATCTAG)” the “recombinant UMI read abundance (log10)” value was 0.437.
For “CGATCATCATGGACCGGTTTTCCCGGTAATCCGTATTTGCT (site CGACCAACTAG)”, the “recombinant UMI read abundance (log10)” value was 0.00386.
With “CGATCATCATGGACCGGTTTTCCCGGTAATCCGTATTTGCT (site CGACCATCTAC)” the “recombinant UMI read abundance (log10)” value was 0.
In the case of “CGATCATCATGGACCGGTTTTCCCGGTAATCCGTATTTGCT (site CGACCATCTAG)”, the “recombinant UMI read abundance (log10)” value is reported as 2.55.
With “CGATCATCATGGACCGGTTTTCCCGGTAATCCGTATTTGCT (site CGACCATCTCG)” the “recombinant UMI read abundance (log10)” value was 0.019.
With “CGATCATCATGGACCGGTTTTCCCGGTAATCCGTATTTGCT (site CGACCCTCTAG)” the “recombinant UMI read abundance (log10)” value was 0.00441.
For “CGATCATCATGGACCGGTTTTCCCGGTAATCCGTATTTGCT (site CGAGCAGCTAG)”, the “recombinant UMI read abundance (log10)” value was 0.
In the case of “CGATCATCATGGACCGGTTTTCCCGGTAATCCGTATTTGCT (site CGAGCATCTAA)”, the “recombinant UMI read abundance (log10)” value is reported as 0.0187.
For “CGATCATCATGGACCGGTTTTCCCGGTAATCCGTATTTGCT (site CGAGCATCTAG)”, the “recombinant UMI read abundance (log10)” value was 0.
With “CGATCATCATGGACCGGTTTTCCCGGTAATCCGTATTTGCT (site CGAGCATCTTG)” the “recombinant UMI read abundance (log10)” value was 0.
In the case of “CGATCATCATGGACCGGTTTTCCCGGTAATCCGTATTTGCT (site CGAGCTTCTAG)”, the “recombinant UMI read abundance (log10)” value is reported as 0.
In the case of “CGATCATCATGGACCGGTTTTCCCGGTAATCCGTATTTGCT (site CGAGTATCTAG)”, the “recombinant UMI read abundance (log10)” value is reported as 0.
With “CGATCATCATGGACCGGTTTTCCCGGTAATCCGTATTTGCT (site CGATAAACTAG)” the “recombinant UMI read abundance (log10)” value was 0.0203.
In the case of “CGATCATCATGGACCGGTTTTCCCGGTAATCCGTATTTGCT (site CGATAATCTAC)”, the “recombinant UMI read abundance (log10)” value is reported as 0.
With “CGATCATCATGGACCGGTTTTCCCGGTAATCCGTATTTGCT (site CGATAATCTAG)” the “recombinant UMI read abundance (log10)” value was 0.558.
In the case of “CGATCATCATGGACCGGTTTTCCCGGTAATCCGTATTTGCT (site CGATAATCTCG)”, the “recombinant UMI read abundance (log10)” value is reported as 0.
With “CGATCATCATGGACCGGTTTTCCCGGTAATCCGTATTTGCT (site CGATACTCTAG)” the “recombinant UMI read abundance (log10)” value was 0.
With “CGATCATCATGGACCGGTTTTCCCGGTAATCCGTATTTGCT (site CGATCAACTAC)” the “recombinant UMI read abundance (log10)” value was 0.0107.
In the case of “CGATCATCATGGACCGGTTTTCCCGGTAATCCGTATTTGCT (site CGATCAACTAG)”, the “recombinant UMI read abundance (log10)” value is reported as 0.
With “CGATCATCATGGACCGGTTTTCCCGGTAATCCGTATTTGCT (site CGATCAACTCG)” the “recombinant UMI read abundance (log10)” value was 0.
In the case of “CGATCATCATGGACCGGTTTTCCCGGTAATCCGTATTTGCT (site CGATCACCTAG)”, the “recombinant UMI read abundance (log10)” value is reported as 0.
In the case of “CGATCATCATGGACCGGTTTTCCCGGTAATCCGTATTTGCT (site CGATCACCTAT)”, the “recombinant UMI read abundance (log10)” value is reported as 0.0275.
With “CGATCATCATGGACCGGTTTTCCCGGTAATCCGTATTTGCT (site CGATCACCTGG)” the “recombinant UMI read abundance (log10)” value was 0.009.
For “CGATCATCATGGACCGGTTTTCCCGGTAATCCGTATTTGCT (site CGATCAGCTAA)”, the “recombinant UMI read abundance (log10)” value was 0.00801.
In the case of “CGATCATCATGGACCGGTTTTCCCGGTAATCCGTATTTGCT (site CGATCAGCTAG)”, the “recombinant UMI read abundance (log10)” value is reported as 0.
With “CGATCATCATGGACCGGTTTTCCCGGTAATCCGTATTTGCT (site CGATCAGCTTG)” the “recombinant UMI read abundance (log10)” value was 0.
With “CGATCATCATGGACCGGTTTTCCCGGTAATCCGTATTTGCT (site CGATCATCTAA)” the “recombinant UMI read abundance (log10)” value was 0.
In the case of “CGATCATCATGGACCGGTTTTCCCGGTAATCCGTATTTGCT (site CGATCATCTAC)”, the “recombinant UMI read abundance (log10)” value is reported as 0.
